Measured values published in US8101389B2, “Bacterial glutamine synthetases and methods of use” (Athenix Corp, priority 2006, dated 2012).
Entries after “also recorded” stand apart in the source; their conditions may differ.

What was measured:
[1] = test system: E. coli cells with AGS1 variant AGS1m20, F81S, P185S, H212M, V214H, G218S, I303N, SEQ ID NO:40; assay: growth of E. coli on glufosinate plates, ags1m20; type: cell-based
Procedure: (§1) Clones expressing AGS1m17, AGS1m18, AGS1m19, or AGS1m20 were all found to be able to grow on plates containing 375 mM glufosinate, whereas no growth of clones expressing AGS1m16 was observed on plates containing 375 mM glufosinate.

ATX 20345 = assay: Growth of strain ATX 20345 in minimal medium with glufosinate; type: cell-based, Serratia marcescens; details: no other nitrogen source, 21° C.
Procedure: A glufosinate resistant bacterial strain (ATX 20345) was isolated from a soil sample via a soil suspension by placing approximately 0.01 grams soil in 500 μl sterile water. The soil suspension was vortexed, and 20 μl was used to inoculate a 2.5 ml minimal medium culture supplemented with 5 mM glufosinate (Riedel-de Habël, available through Sigma-Aldrich, St. Louis, Mo.). The minimal medium contains the following ingredients (per 1 liter): 10 grams sucrose, 1 ml 0.8M MgSO4, 1 ml 0.1M CaCl2, 1 ml trace elements, 2.38 grams KH2PO4, 5.64 grams K2HPO4. The pH is adjusted to 7.0, and the solution is sterilized with a 0.2 μm filter. Trace elements consist of (per 100 ml) 0.1 g FeSO4.7H2O, 0.5 mg CuSO4.5H2O, 1.0 mg H3BO3, 1.0 mg MnSO4.5H2O, 7.0 mg ZnSO4.7H2O, 1.0 mg MoO3, 4.0 g KCl. No additional nitrogen source was provided in the medium. Cultures were grown at 21° C. on a rotary shaker for 3 days then transferred to fresh minimal medium containing 5 mM glufosinate and incubated at 21° C. After 2 days, the cultures were used to inoculate fresh minimal medium with 5 mM glufosinate. After 2 days, the cultures were plated onto Luria Bertani (LB) agar and then restruck for isolation. […] Colonies on LB agar are pinkish-red, raised, circular, and 1-2 mm in diameter. ATX20345 was typed by fatty acid analysis (as known in the art), and determined to be a strain of Serratia marcescens. […]

[2] = test system: E. coli cells with AGS1 variant AGS1m1 (pAX3421), V39I, V214M, SEQ ID NO:4; assay: growth of E. coli on glufosinate plates, ags1m1; type: cell-based
Procedure: (§2) Mutants of the bacterial glutamine synthetase gene ags1 (SEQ ID NO:1) were created by error-prone mutagenesis using the GENEMORPH® Random Mutagenesis kit, and also using oligo-directed mutagenesis as known in the art. However, many methods are available for creating libraries of mutants. The resulting mutants were cloned into a pUC19 vector, electroporated into either XL-1 or DH5 alpha E. coli cells, and selected for growth on M63+ agar media containing antibiotic and 2, 10, or 20 mM glufosinate. Twenty-two clones were identified as growing on 20 mM glufosinate, and picked for further analysis.
ags1m2 was mutagenized by error-prone mutagenesis using GENEMORPH® II Random Mutagenesis kit (Stratagene) according to manufacturer's instructions. Mutagenized PCR product was digested with Sac I and Hind III, and ligated into a pUC vector, similarly digested with Sac I and Hind III. Ligations were transformed into E. coli cells, and plated onto M63+ plates containing antibiotic, and 125 mM glufosinate. Clones growing on 125 mM glufosinate plates were retested on 200 mM glufosinate plates, and compared to similar platings of ags1m1 and ags1m2. […] The DNA sequence of the ags open reading frame in pAX3439 was sequenced, and the gene designated as ags1m16. The DNA sequence of ags1m16 is represented herein as SEQ ID NO:31, and the amino acid sequence is represented herein as SEQ ID NO:32. […]

[3] = test system: E. coli cells with AGS1 variant AGS1m7 (pAX3431), G168C, V214M, K395R, SEQ ID NO:14; assay: growth of E. coli on glufosinate plates, ags1m7; type: cell-based; details: 2, 10, 20, 50, and 100 mM; DH5a; Clone 10
Procedure: as §2

[4] = test system: E. coli cells with AGS1 variant AGS1m17, F81S, P185S, H212T, V214A, G218S, I303N, SEQ ID NO:34; assay: growth of E. coli on glufosinate plates, ags1m17; type: cell-based
Procedure: as §1

[5] = biological target: Serratia marcescens glutamine synthetase AGS1 variant AGS1m1 (pAX3421), V39I, V214M, SEQ ID NO:4 (Serratia marcescens, UniProt A0A0F6KS08, V214M/V39I); assay: enzymatic assay of purified 6Xhis AGS1m1 with glufosinate; type: biochemical; details: 100 uM glufosinate
Sequence of Serratia marcescens glutamine synthetase AGS1 variant AGS1m1 (pAX3421), V39I, V214M, SEQ ID NO:4 (A0A0F6KS08 whole entry V39I/V214M): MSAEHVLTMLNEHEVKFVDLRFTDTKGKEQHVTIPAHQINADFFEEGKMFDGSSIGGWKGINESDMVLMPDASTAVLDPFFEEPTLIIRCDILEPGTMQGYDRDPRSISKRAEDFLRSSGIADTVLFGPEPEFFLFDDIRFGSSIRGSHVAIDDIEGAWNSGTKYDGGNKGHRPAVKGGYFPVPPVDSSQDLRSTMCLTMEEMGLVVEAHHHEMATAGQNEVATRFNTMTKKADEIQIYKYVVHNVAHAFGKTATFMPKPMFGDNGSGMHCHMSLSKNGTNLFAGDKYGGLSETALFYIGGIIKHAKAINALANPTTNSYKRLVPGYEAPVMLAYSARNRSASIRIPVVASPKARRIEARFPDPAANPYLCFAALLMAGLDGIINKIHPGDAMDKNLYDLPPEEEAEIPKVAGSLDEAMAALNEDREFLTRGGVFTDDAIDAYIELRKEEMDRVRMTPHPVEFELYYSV
Description: (§3) ags1m1 (pAX3421) and ags1m2 (pAX3422) were subcloned into E. coli expression vector pRSF1B (Invitrogen) so as to create an N-terminus encoding a 6Xhis tag, purified and characterized kinetically.

[6] = test system: E. coli cells with AGS1 variant AGS1m16 (pAX3439), F81S, P185S, H212N, G218S, I303N, SEQ ID NO:32; assay: growth of E. coli on glufosinate plates, ags1m16; type: cell-based
Procedure: ags1m2 was mutagenized by error-prone mutagenesis using GENEMORPH® II Random Mutagenesis kit (Stratagene) according to manufacturer's instructions. Mutagenized PCR product was digested with Sac I and Hind III, and ligated into a pUC vector, similarly digested with Sac I and Hind III. Ligations were transformed into E. coli cells, and plated onto M63+ plates containing antibiotic, and 125 mM glufosinate. Clones growing on 125 mM glufosinate plates were retested on 200 mM glufosinate plates, and compared to similar platings of ags1m1 and ags1m2. […] The DNA sequence of the ags open reading frame in pAX3439 was sequenced, and the gene designated as ags1m16. The DNA sequence of ags1m16 is represented herein as SEQ ID NO:31, and the amino acid sequence is represented herein as SEQ ID NO:32. AGS1m16 differs from AGS1m2 at a single amino acid at position H212 of the protein, which is modified from Histidine (‘H’) to Asparagine (‘N’), and contains a total of five amino acid changes relative to the wild-type AGS1 (see FIG. 1 and Table 3).
as §1

[7] = biological target: T1, Serratia marcescens ATX 20345 glutamine synthetase AGS1, wild type, SEQ ID NO:2 (Serratia marcescens, UniProt A0A0F6KS08); assay: enzymatic assay, kinetics of wild-type AGS1; type: biochemical
T1 construct: gene cloned as pAX685; dodecamer from known biology
T1 sequence (A0A0F6KS08 entry or part of it): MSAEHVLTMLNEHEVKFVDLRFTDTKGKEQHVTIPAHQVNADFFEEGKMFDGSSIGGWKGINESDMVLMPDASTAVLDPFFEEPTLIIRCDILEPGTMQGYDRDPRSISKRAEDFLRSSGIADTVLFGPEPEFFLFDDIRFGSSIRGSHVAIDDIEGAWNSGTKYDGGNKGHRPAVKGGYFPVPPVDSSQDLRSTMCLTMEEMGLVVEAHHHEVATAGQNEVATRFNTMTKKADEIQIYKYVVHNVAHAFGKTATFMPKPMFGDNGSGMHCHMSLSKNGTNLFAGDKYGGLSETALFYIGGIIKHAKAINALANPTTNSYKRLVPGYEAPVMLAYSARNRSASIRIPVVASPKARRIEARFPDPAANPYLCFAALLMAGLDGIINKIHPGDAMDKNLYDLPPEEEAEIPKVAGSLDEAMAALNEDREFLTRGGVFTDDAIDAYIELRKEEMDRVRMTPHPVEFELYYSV
Description: as §3
ags1m21 (SEQ ID NO:41) encodes the AGS1m21 protein (SEQ ID NO:42). AGS1m21 is a variant of AGS1 that contains a similar amino acid change identified in other variants (V214M), as well as two novel mutations (N160S and G167R). This enzyme was expressed in E. coli, purified, and the kinetic values Km(glutamate) and Ki(glufosinate) of the variant measured by enzymatic assay.
The unmodified enzyme (AGS1) was compared to AGS1(AD-) and AGS1m17(AD-) by carrying out enzymatic assays on both enzymes following purification from E. coli. A glutamine synthetase enzyme from E. coli (GlnA) was also tested.

CP(=O)(O)CCC(N)C(=O)O (stereo not shown) [glufosinate]
growth on plates containing 375 mM glufosinate [1]: able to grow
growth of ATX 20345 in the presence of glufosinate (ATX 20345): ability to grow in the presence of 5 mM glufosinate; also recorded: grows well through 50 mM
growth on 200 mM glufosinate plates ([2]; 200 mM glufosinate): did not grow
growth on glufosinate minimal M63+ agar media ([2]; 2, 10, 20, 50, and 100 mM, DH5a, Clone 2): shown to grow
growth on glufosinate minimal M63+ agar media [3]: shown to grow
growth on plates containing 375 mM glufosinate [4]: able to grow
activity in the presence of glufosinate [5]: showed activity
growth on 200 mM glufosinate plates ([6]; 200 mM glufosinate): ability to grow
growth on plates containing 375 mM glufosinate ([6]; 375 mM glufosinate): no growth
glufosinate concentrations up to which cells are able to grow ([6]; cells containing AGS1m16): 200 mM
Ki [7]: 13 µM
inhibition by glufosinate ([7]; 100 uM glufosinate): completely inhibited
(Kcat*Ki)/Km ([7]; Table 5, Km glutamate, Ki glufosinate): 0.32
